Measurements published in US11242346B2, “Mechanistic target of rapamycin signaling pathway inhibitors and therapeutic applications thereof” (SUZHOU KINTOR PHARMACEUTICALS, INC., priority 2016, dated 2022).

Columns and labels:
[1] = tested on: mammalian tumor cell lines such as PC-3, LNCAP, U87, Huh-7, HepG2 and MDA-MB-468; assay: Cell proliferation/survival MTT assay in tumor cell lines; format: cell-based; conditions: 5 days (120 h) culture; cell line not specified; read-out: IC50, inhibition of tumor cell growth (MTT)
Experimental: The cytotoxic or cytostatic activity of Formula I-III exemplary compounds was measured by establishing proliferating mammalian tumor cell lines such as PC-3, LNCAP, U87, Huh-7, HepG2 and MDA-MB-468 in a cell culture medium, adding a test compound, culturing the cells for a period of 5 days by measuring cell viability via MTT assays. Dose response data were obtained for each test compound and the degree of inhibition of tumor cell growth was expressed as an IC50 value. […] For example. For example, compounds of example 14, 15, 46,29, 45, 49, 122, 88, 54, 55, 58, 59, 63, 64, 66, 67, 68, 113, 86, 90.
PC-3 (or U87) cells were seeded in 96-well plates at low density (at 2,000 cells per well) in media supplemented with 10% FBS (growth media) and transferred to serum-free media (1% FBS) after 24 h. Designated concentrations of drug were added to each well. The cells were incubated for 120 h. At the end of drug exposure, 20 μL/well of MTT solution was added. After 4 h at 37° C. in a humidified 5% CO2 atmosphere, the absorbance at 490 nm was recorded by using a microplate reader. IC50 was calculated using GraphPad Prism version 5 for Windows. The curves were fit using a nonlinear regression model with a log (inhibitor) versus response formula.

[2] = Rat pharmacokinetic study (IV and PO); format: in vivo; conditions: for AUC(0-t) / Cmax / MRT / clearance / half-life / Tmax / bioavailability: blood; for bioavailability: PO 10 mg/kg vs IV 5 mg/kg, read-out: Fpo (oral bioavailability)
Experimental: (§1) Active mTOR inhibitors in enzymatic and/or cell-based assays herein were evaluated for pharmacokinetic properties. Preferable compounds are with pharmacokinetic properties of low clearance, long half-life and/or good oral bioavailability (Fpo). In vitro, selected example compounds were evaluated for metabolic stability by incubating with human liver microsome (HLM) for 60 min. Compounds that were metabolized slower (i.e. higher % remaining) are preferred. […] The more metabolic stable example compounds in the HLM assay were further evaluated for pharmacokinetic properties in vivo. In a representative experiment, selected example compounds were dosed to rats intravenously (IV, 5 mg/kg, 30% PEG400+30% PG+1% DMSO in saline) and orally (PO, 10 mg/kg, 2.4% DMSO+0.1% Tween80 in 0.5% CMC-Na), rat blood samples were taken at designed time points after dosing and analyzed for tested drug concentrations using LC-MS/MS. Pharmacokinetic parameters were derived from the time curve of drug concentrations.

PC-3 = assay: NCI60 panel growth inhibition, PC-3; format: cell-based; conditions: Homo sapiens
Experimental: (§2) Cell growth inhibitory activities against cancer cells of the present compounds were also evaluated by submitting selected the example compounds to US NCI-Chemotherapeutic Agents Repository for screening against NCI60 panel. The United States NCI-60 platform is a cancer cell platform established with 60 different human cancer cell lines from 9 different kinds of organs. This platform represents the biological characteristics of the corresponding tumor type. The drugs were screened by measuring the ability of each test compound at a range of concentrations to inhibit the growth of various tumor cells.

mTOR (FRAP1) = mTOR (FRAP1) (Homo sapiens, UniProt P42345); assay: SelectScreen Profiling, Z'-LYTE kinase assay, mTOR (FRAP1); format: biochemical; conditions: 0.1 μM compound, ATP at Km, read-out: mTOR inh% @0.1 μM
Excerpt: (§3) Some of the example compounds were submitted to Life Technologies Corporation SelectScreen® Profiling Service to test their potency in inhibiting the kinase catalytic activities of mTOR, PI3Kα, VEGF2, FGFR1, HER1 (EGFR) and HER2. A concentration of ATP at the Km of the corresponding kinase was used for all assays. The mTOR (FRAP1), VEGF2, FGFR1, HER1 (EGFR) and HER2 assays used Z′-LYTE® technology. The PI3Kα assay used Adapta® technology. The symbol “inh %” as used herein generally refers to inhibition percentage.

NCI-H23 = assay: NCI60 panel growth inhibition, NCI-H23; format: cell-based; conditions: Homo sapiens
Experimental: as §2

FGFR1 = FGFR1 (Homo sapiens, UniProt P11362); assay: SelectScreen Profiling, Z'-LYTE kinase assay, FGFR1; format: biochemical; conditions: 1 μM compound, ATP at Km, read-out: FGFR 1 inh % @1 μM
FGFR1, sequence (P11362 22-822): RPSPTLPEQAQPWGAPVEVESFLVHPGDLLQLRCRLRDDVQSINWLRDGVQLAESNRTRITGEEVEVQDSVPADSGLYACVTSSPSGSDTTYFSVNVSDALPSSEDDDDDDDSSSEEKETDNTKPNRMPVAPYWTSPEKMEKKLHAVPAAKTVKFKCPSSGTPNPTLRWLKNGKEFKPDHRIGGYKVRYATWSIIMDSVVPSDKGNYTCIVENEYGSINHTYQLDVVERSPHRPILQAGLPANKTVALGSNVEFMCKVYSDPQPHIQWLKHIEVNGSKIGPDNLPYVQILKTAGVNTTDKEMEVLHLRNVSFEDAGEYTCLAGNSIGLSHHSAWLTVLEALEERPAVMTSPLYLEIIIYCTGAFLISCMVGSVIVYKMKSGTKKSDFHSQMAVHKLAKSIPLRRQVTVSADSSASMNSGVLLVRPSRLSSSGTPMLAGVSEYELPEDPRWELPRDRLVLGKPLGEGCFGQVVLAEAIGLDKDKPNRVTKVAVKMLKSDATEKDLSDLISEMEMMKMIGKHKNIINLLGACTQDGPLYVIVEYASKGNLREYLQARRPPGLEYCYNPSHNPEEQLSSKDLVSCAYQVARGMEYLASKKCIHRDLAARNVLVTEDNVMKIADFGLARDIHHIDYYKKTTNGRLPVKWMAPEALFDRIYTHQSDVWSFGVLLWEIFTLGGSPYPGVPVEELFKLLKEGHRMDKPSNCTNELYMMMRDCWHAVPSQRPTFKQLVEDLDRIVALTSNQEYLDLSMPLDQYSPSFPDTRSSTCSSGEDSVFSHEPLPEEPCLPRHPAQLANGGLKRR
Excerpt: as §3

PI3Kα = PI3Kα (Homo sapiens, UniProt P42336); assay: SelectScreen Profiling, Adapta kinase assay, PI3Kα; format: biochemical; conditions: 0.1 μM compound, ATP at Km, read-out: PI3Kα inh % @0.1 μM
PI3Kα, sequence (P42336 whole entry): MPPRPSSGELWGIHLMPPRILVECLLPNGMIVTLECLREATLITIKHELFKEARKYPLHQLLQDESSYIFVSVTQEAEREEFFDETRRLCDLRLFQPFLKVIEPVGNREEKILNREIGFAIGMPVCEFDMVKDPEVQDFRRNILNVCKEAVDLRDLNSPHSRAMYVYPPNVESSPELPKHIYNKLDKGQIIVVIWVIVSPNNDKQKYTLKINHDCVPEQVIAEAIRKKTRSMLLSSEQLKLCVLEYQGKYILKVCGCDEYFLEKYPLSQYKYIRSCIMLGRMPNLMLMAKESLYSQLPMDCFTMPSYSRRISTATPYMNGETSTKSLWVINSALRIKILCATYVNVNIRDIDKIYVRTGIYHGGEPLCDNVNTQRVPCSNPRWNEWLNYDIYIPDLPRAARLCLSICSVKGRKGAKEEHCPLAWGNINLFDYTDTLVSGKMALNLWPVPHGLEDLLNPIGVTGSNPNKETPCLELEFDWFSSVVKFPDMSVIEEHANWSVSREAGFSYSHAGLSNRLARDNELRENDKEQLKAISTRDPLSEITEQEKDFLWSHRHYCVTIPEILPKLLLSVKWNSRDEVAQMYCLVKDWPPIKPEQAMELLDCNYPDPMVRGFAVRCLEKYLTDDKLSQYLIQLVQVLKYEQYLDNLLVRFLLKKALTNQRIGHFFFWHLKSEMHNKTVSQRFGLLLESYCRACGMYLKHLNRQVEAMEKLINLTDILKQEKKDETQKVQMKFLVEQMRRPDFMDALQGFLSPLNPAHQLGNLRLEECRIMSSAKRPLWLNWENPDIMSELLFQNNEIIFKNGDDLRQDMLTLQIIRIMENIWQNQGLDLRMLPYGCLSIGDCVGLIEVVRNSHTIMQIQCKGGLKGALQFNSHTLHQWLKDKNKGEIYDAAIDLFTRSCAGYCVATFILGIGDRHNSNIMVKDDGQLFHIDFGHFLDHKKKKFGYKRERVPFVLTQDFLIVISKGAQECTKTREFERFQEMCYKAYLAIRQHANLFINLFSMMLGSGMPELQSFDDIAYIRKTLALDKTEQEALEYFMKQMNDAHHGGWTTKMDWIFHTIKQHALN
PI3Kα, sequence (P27986 whole entry partner): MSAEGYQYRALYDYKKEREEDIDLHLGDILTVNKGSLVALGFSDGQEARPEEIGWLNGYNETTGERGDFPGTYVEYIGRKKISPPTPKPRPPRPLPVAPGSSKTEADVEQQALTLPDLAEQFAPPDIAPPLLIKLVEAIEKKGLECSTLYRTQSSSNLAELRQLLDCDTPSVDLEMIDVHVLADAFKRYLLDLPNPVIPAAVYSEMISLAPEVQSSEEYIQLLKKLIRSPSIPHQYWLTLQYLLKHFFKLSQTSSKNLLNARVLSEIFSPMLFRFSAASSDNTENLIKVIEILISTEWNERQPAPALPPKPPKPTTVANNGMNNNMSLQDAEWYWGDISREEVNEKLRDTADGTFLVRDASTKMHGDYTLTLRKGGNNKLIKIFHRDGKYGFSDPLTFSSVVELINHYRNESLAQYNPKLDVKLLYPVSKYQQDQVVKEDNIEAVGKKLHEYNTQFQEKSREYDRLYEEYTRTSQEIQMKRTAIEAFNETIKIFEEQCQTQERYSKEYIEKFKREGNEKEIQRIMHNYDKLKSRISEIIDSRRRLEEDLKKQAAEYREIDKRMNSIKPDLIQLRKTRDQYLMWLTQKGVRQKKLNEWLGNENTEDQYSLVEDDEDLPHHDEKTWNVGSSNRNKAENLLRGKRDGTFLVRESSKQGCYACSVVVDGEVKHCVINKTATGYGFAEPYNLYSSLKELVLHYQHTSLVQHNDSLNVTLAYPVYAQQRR

SKOV-3 = assay: NCI60 panel growth inhibition, SKOV-3; format: cell-based; conditions: Homo sapiens, SK-OV-3
Experimental: as §2

HER2 = HER2 (Homo sapiens, UniProt P04626); assay: SelectScreen Profiling, Z'-LYTE kinase assay, HER2; format: biochemical; conditions: 1 μM compound, ATP at Km, read-out: HER2 inh % @1 μM
HER2, sequence (P04626 23-1255): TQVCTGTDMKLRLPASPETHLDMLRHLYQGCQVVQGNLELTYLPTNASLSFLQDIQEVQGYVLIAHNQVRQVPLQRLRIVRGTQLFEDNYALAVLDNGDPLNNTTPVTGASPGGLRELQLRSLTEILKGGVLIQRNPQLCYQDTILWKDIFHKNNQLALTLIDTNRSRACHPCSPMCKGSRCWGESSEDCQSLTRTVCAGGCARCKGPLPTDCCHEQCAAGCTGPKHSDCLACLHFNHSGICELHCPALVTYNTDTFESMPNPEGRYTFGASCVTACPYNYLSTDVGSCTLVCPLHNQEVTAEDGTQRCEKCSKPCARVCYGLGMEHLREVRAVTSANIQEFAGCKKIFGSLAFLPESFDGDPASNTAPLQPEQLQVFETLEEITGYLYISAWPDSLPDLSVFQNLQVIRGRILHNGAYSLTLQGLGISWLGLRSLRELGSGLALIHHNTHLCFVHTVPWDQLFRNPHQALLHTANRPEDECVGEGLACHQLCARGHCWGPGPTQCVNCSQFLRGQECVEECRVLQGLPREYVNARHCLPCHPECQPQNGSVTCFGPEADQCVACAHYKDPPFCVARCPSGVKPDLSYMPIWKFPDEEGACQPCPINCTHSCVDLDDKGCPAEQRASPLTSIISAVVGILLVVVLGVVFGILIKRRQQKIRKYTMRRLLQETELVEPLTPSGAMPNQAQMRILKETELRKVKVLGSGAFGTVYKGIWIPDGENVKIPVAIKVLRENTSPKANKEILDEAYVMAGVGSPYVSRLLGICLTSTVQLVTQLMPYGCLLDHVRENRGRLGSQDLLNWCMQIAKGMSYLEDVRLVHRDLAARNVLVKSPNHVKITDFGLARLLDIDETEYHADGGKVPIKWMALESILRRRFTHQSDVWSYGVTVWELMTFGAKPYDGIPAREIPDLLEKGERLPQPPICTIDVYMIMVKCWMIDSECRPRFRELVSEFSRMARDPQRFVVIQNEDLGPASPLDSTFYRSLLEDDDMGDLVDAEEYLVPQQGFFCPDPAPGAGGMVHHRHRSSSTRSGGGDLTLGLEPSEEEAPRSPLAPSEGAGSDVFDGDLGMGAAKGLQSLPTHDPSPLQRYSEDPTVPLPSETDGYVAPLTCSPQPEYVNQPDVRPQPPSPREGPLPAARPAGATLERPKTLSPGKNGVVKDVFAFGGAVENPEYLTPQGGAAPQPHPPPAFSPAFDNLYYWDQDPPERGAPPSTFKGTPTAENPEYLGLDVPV
Excerpt: as §3

HER1 (EGFR) = HER1 (EGFR) (Homo sapiens, UniProt P00533); assay: SelectScreen Profiling, Z'-LYTE kinase assay, HER1 (EGFR); format: biochemical; conditions: 1 μM compound, ATP at Km, read-out: HER1 inh % @1 μM
HER1 (EGFR), sequence (P00533 25-1210): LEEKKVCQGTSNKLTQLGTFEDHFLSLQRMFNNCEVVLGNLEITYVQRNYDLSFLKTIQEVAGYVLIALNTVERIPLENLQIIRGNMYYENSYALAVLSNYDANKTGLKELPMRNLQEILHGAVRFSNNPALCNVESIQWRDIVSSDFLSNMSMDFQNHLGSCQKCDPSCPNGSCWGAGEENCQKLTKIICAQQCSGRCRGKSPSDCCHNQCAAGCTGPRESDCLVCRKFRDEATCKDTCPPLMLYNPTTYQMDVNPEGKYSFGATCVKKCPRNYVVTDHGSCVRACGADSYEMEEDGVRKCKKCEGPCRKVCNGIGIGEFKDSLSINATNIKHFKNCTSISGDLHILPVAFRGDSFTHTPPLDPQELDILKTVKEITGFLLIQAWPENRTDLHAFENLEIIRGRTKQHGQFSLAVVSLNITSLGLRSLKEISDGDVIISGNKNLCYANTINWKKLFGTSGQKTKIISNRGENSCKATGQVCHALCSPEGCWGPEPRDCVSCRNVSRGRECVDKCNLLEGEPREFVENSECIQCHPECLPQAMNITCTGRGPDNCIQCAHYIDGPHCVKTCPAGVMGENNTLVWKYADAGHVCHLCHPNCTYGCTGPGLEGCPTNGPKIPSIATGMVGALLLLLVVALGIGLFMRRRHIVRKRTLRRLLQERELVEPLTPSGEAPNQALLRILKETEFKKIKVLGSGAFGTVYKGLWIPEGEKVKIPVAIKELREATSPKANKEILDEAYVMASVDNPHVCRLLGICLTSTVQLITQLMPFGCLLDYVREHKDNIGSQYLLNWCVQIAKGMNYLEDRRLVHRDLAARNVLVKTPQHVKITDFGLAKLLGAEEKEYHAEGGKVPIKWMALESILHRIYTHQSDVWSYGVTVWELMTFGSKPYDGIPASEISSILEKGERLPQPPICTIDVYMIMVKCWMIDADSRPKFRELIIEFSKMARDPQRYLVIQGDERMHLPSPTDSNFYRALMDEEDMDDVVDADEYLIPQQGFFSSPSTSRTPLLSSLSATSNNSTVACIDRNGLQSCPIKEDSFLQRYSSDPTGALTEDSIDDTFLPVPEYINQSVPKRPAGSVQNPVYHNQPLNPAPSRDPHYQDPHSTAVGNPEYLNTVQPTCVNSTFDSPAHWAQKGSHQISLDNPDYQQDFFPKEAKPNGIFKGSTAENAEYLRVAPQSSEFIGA
Excerpt: as §3

NCI 60 human cell lines = assay: NCI60 panel growth inhibition, average over 60 cell lines; format: cell-based
Experimental: as §2

[3] = Metabolic stability in human liver microsome (HLM); format: in vitro ADME; conditions: incubation with human liver microsome for 60 min
Experimental: as §1

MCF-7 = assay: NCI60 panel growth inhibition, MCF-7; format: cell-based; conditions: Homo sapiens, MCF7
Experimental: as §2

NCI-H460 = assay: NCI60 panel growth inhibition, NCI-H460; format: cell-based; conditions: Homo sapiens
Experimental: as §2

A549 = assay: NCI60 panel growth inhibition, A549; format: cell-based; conditions: Homo sapiens
Experimental: as §2

HCT-116 = assay: NCI60 panel growth inhibition, HCT-116; format: cell-based; conditions: Homo sapiens
Experimental: as §2

VEGF2 = VEGF2 (Homo sapiens, UniProt P35968); assay: SelectScreen Profiling, Z'-LYTE kinase assay, VEGF2; format: biochemical; conditions: 1 μM compound, ATP at Km, read-out: VEGF 2 inh % @1 μM
Excerpt: as §3

[4] = Stability noted on isolation of the compound; format: physicochemical; conditions: after Prep-TLC purification
Experimental: To a mixture of compound 33 (80 mg, 0.28 mmol), compound 2 (22 mg, 0.09 mmol) and 2M Na2CO3 (1.2 mL) was added dioxane (6 mL). N2 was bubbled through the solution for 1.5 minutes, at which time Pd(dppf)Cl2 (12 mg, […]) was added. The reaction was stirred at 100° C. for 1 hour under N2. After cooling to room temperature, Ethyl acetate was added and the resulting slurry was sonicated and filtered. Additional ethyl acetate was used to wash the solid. The combined organic extracts were concentrated and the crude material was purified by Prep-TLC using Petroleum ether:Ethyl acetate (3:1) affording to Example 33 (10 mg),and the compound was unstable. ^1H NMR (400 MHz, CDCl3): δ 8.83 (s, 1H), 7.68-7.64 (m, 1H), 6.74-6.78 (m, 1H), 6.70-6.73 (m, 1H), 5.53 (bs, 2H), 4.11-4.04 (m, 4H), 3.87-3.82 (m, 4H). ESI-MS (M+H)^+: 366.1

| SMILES | AUC(0-t) ([2]; IV 5 mg/kg) [ng·h/mL] | Cmax ([2]; IV 5 mg/kg) [ng/mL] | MRT ([2]; IV 5 mg/kg) [h] | clearance ([2]; IV 5 mg/kg) [mL/min/kg] | half-life ([2]; IV 5 mg/kg) [h] | inhibition at 0.1 µM (mTOR (FRAP1)) [%] | inhibition at 1 µM (FGFR1) [%] | inhibition at 0.1 µM (PI3Kα) [%] | inhibition at 1 µM (HER2) [%] | inhibition at 1 µM (HER1 (EGFR)) [%] | metabolic stability in HLM [3] | inhibition at 1 µM (VEGF2) [%] | IC50 [1] [nM] | GI50 (PC-3) [nM] | GI50 (NCI-H23) [nM] | GI50 (SKOV-3) [nM] | GI50 (NCI 60 human cell lines) [nM] | GI50 (MCF-7) [nM] | GI50 (NCI-H460) [nM] | GI50 (A549) [nM] | also measured |
| --- | --- | --- | --- | --- | --- | --- | --- | --- | --- | --- | --- | --- | --- | --- | --- | --- | --- | --- | --- | --- | --- |
| O=C(Nc1ccc(-c2nc(N3CCOCC3)c3cccn3n2)cc1)Nc1cccnc1 [Example 14] | 10100 | 6560 | 1.7 | 10.3 | 1.3 | 87 | 1 | 11 | -8 | -1 | metabolically stable | 8 | < 500 | 51 | 269 | 98.7 | 120 | 48.3 | 142 | 244 | CL ([2]; PO 10 mg/kg): 30.13 mL/min/kg; AUC(0-t) ([2]; PO 10 mg/kg): 4900 ng·h/mL; Cmax ([2]; PO 10 mg/kg): 784 ng/mL; MRT ([2]; PO 10 mg/kg): 5.71 h; Tmax ([2]; PO 10 mg/kg): 1 h; half-life ([2]; PO 10 mg/kg): 3.28 h; bioavailability [2]: 22%; GI50 (HCT-116): 41 nM |
| O=C(NCCO)Nc1ccc(-c2nc(N3CCOCC3)c3cccn3n2)cc1 [Example 29] | 16600 | 11900 | 1.84 | 4.83 | 1.49 | 94 | -1 | 9 | -7 | -1 | metabolically stable | 11 | < 500 | – | – | – | – | – | – | – | CL ([2]; PO 10 mg/kg): 99 mL/min/kg; AUC(0-t) ([2]; PO 10 mg/kg): 1650 ng·h/mL; Cmax ([2]; PO 10 mg/kg): 380 ng/mL; MRT ([2]; PO 10 mg/kg): 2.9 h; Tmax ([2]; PO 10 mg/kg): 2 h; half-life ([2]; PO 10 mg/kg): 1.12 h; bioavailability [2]: 5% |
| CN(C)C1CCN(C(=O)c2ccc(NC(=O)Nc3ccc(-c4nc(N5CCOCC5)c5cccn5n4)cc3)cc2)CC1 [Example 15] | 3430 | 4710 | 5.57 | 17.8 | 4.98 | 98 | 4 | 54 | -7 | -2 | metabolically stable | 8 | < 500 | 25 | 123 | 46.3 | 76 | < 10 | 67 | 54.5 | GI50 (HCT-116): 65.7 nM |
| Nc1ncc(-c2nc(N3CCOCC3)c3cccn3n2)c(C(F)(F)F)n1 [Example 33] | – | – | – | – | – | – | – | – | – | – | – | – | – | – | – | – | – | – | – | – | stability of the isolated compound [4]: unstable |

The next lines start with results.

| AUC(0-t) ([2]; IV 5 mg/kg) [ng·h/mL] | Cmax ([2]; IV 5 mg/kg) [ng/mL] | MRT ([2]; IV 5 mg/kg) [h] | clearance ([2]; IV 5 mg/kg) [mL/min/kg] | half-life ([2]; IV 5 mg/kg) [h] | inhibition at 0.1 µM (mTOR (FRAP1)) [%] | inhibition at 1 µM (FGFR1) [%] | inhibition at 0.1 µM (PI3Kα) [%] | inhibition at 1 µM (HER2) [%] | inhibition at 1 µM (HER1 (EGFR)) [%] | metabolic stability in HLM [3] | inhibition at 1 µM (VEGF2) [%] | SMILES | IC50 [1] [nM] | GI50 (PC-3) [nM] | GI50 (NCI-H23) [nM] | GI50 (SKOV-3) [nM] | GI50 (NCI 60 human cell lines) [nM] | GI50 (MCF-7) [nM] | GI50 (NCI-H460) [nM] | GI50 (A549) [nM] | also measured |
| --- | --- | --- | --- | --- | --- | --- | --- | --- | --- | --- | --- | --- | --- | --- | --- | --- | --- | --- | --- | --- | --- |
| 11400 | 4700 | 3.03 | 7.35 | 2.13 | 94 | 0 | 8 | -1 | 1 | metabolically stable | -10 | OCCNC(=S)Nc1ccc(-c2nc(N3C[C@H]4CC[C@@H](C3)O4)c3cccn3n2)cc1 [Example 122] | < 500 | 41 | 70.3 | 18.9 | 62 | 26.8 | 35.9 | 110 | CL ([2]; PO 10 mg/kg): 13.3 mL/min/kg; AUC(0-t) ([2]; PO 10 mg/kg): 11900 ng·h/mL; Cmax ([2]; PO 10 mg/kg): 1910 ng/mL; MRT ([2]; PO 10 mg/kg): 7.33 h; Tmax ([2]; PO 10 mg/kg): 0.833 h; half-life ([2]; PO 10 mg/kg): 4.72 h; bioavailability [2]: 48%; GI50 (HCT-116): 364 nM |
| 8760 | 8460 | 3.66 | 8.28 | 3.25 | 86 | -3 | – | -6 | 0 | metabolically stable | 11 | CN1CCN(C(=O)c2ccc(NC(=O)Nc3ccc(-c4nc(N5CCOCC5)c5cccn5n4)cc3)cc2)CC1 [Example 46] | < 500 | 23 | 96.2 | 26.8 | 59 | 14.4 | 59.7 | 66.5 | GI50 (HCT-116): 60.2 nM |
